Experiments:
[1] = H2S release from SA/JK-1 sponge at varied pH; conditions: pH 6.0
[2] = H2S release kinetics from PCL-JK-1 fibrous scaffold, modified Methylene Blue method; conditions: pH 6.0, PBS; PCL-JK-1 with 10% JK-1, JK-1 in solution as control (FIG. 4B)

Question: With O=C([O-])CNP([O-])(=S)c1ccccc1.[Li+].[Li+] (centres unmarked) [JK-1] as the compound, how does the “time to H2S peak concentration” value [1] read?
Answer: ≤ 55 min

Question: And the “time to H2S peak concentration” value [2]?
Answer: ≤ 10 min

Reference: patent publication US10456410B2, “Hydrogen sulfide (H2S) releasing donor compound for dermal wound regeneration” (University of South Carolina, priority 2017, dated 2019)
